In US20250171423A1, “PHARMACEUTICAL COMPOUNDS FOR THE TREATMENT OF COMPLEMENT MEDIATED DISORDERS” (Achillion Pharmaceuticals, Inc., priority 2020, published 2025):

Target: T1, Human complement C1s enzyme (Homo sapiens, UniProt P09871)
T1 construct: purified from human serum, Complement Technology, Inc; purchased Complement Technology, Inc; host or cells: human serum
T1 sequence (P09871 438-688 limits assumed): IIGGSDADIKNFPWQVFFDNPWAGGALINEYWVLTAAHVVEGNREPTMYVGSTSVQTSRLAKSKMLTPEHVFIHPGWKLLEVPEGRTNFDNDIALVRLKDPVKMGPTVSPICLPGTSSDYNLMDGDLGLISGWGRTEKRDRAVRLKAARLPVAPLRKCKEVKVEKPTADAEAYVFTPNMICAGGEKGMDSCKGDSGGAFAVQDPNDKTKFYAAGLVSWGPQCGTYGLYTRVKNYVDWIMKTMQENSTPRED
T1 sequence (P09871 16-437 partner limits assumed): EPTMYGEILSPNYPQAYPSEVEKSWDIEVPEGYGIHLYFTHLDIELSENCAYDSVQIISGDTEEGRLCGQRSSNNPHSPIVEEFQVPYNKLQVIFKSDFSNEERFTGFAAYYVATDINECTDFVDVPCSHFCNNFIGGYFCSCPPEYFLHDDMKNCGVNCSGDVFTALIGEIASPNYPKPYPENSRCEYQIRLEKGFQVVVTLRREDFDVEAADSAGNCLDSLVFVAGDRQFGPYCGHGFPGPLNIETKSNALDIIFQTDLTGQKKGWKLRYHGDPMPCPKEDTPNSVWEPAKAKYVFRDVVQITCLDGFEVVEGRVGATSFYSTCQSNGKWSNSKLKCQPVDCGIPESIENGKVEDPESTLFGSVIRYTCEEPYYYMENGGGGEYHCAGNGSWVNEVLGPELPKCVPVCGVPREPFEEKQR
Experiment: Human C1s Enzyme Assay
Format: biochemical
Settings: human C1s 1.16 nM, 5 min preincubation, substrate Z-L-Lys-SBzl 100 μM, A405; read-out: C1s Protease Activity
Procedure, shortened: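 C1s purified from human serum (1.16 nM final) was preincubated with compound for 5 min at room temperature in 50 mM Tris, 1 M NaCl, pH 7.5. Z-L-Lys-SBzl and DTNB were then added at 100 μM each, and A405 was followed for 30 min. IC50 came from nonlinear regression of reaction rates.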

| Structure (SMILES) | IC50 |
| --- | --- |
| C[C@@]12C[C@@H]1N(C(=O)CNC(=O)c1ccc(OC3CCCCC3)cc1)[C@H](C(=O)NCc1cc(C(=N)N)cs1)C2 [Compound 160, (1S,3S,5S)-N-((4-carbamimidoylthiophen-2-yl)methyl)-2-((4-(cyclohexyloxy)benzoyl)glycyl)-5-methyl-2-azabicyclo[3.1.0]hexane-3-carboxamide] | < 100 nM |
| C[C@@]12C[C@@H]1N(C(=O)CN1CCc3cc(Oc4ccccc4)ccc3C1=O)[C@H](C(=O)NCc1cc(C(=N)N)cs1)C2 [Compound 161, (1S,3S,5S)-N-((4-carbamimidoylthiophen-2-yl)methyl)-5-methyl-2-(2-(1-oxo-6-phenoxy-3,4-dihydroisoquinolin-2(1H)-yl)acetyl)-2-azabicyclo[3.1.0]hexane-3-carboxamide] | < 100 nM |
| C[C@@]12C[C@@H]1N(C(=O)CNC(=O)c1ccc(Oc3cccnc3)cn1)[C@H](C(=O)NCc1cc(C(=N)N)cs1)C2 [Compound 162, (1S,3S,5S)-N-((4-carbamimidoylthiophen-2-yl)methyl)-5-methyl-2-((5-(pyridin-3-yloxy)picolinoyl)glycyl)-2-azabicyclo[3.1.0]hexane-3-carboxamide] | < 100 nM |
| N=C(N)c1csc(CNC(=O)[C@@H]2C[C@@H](c3ccc(F)cc3)CN2C(=O)CNC(=O)CCCOc2ccccc2)c1 [Compound 164, (2S,4S)-N-((4-carbamimidoylthiophen-2-yl)methyl)-4-(4-fluorophenyl)-1-((4-phenoxybutanoyl)glycyl)pyrrolidine-2-carboxamide] | < 100 nM |
| C[C@@]12C[C@@H]1N(C(=O)CNC(=O)CCCOc1cccc(C(=O)O)c1)[C@H](C(=O)NCc1cc(C(=N)N)cs1)C2 [Compound 165, 3-(4-((2-((1S,3S,5S)-3-(((4-carbamimidoylthiophen-2-yl)methyl)carbamoyl)-5-methyl-2-azabicyclo[3.1.0]hexan-2-yl)-2-oxoethyl)amino)-4-oxobutoxy)benzoic acid] | < 100 nM |
| CC(C)O[C@@H]1C[C@@H](C(=O)N[C@H](C)c2cc(C(=N)N)cs2)N(C(=O)CNC(=O)CCCOc2ccccc2)C1 [Compound 166, (2S,4R)-N-((R)-1-(4-carbamimidoylthiophen-2-yl)ethyl)-4-isopropoxy-1-((4-phenoxybutanoyl)glycyl)pyrrolidine-2-carboxamide] | < 100 nM |
| CC(C)[C@@H](NC(=O)[C@@H]1CC2(CN1C(=O)CNC(=O)CCCOc1ccccc1)OCCO2)c1cc(C(=N)N)cs1 [Compound 167, (S)-N-((R)-1-(4-carbamimidoylthiophen-2-yl)-2-methylpropyl)-7-((4-phenoxybutanoyl)glycyl)-1,4-dioxa-7-azaspiro[4.4]nonane-8-carboxamide] | > 1000 nM |
| C[C@@]12C[C@@H]1N(C(=O)CNC(=O)c1ccc(C3(c4ccccc4)COC3)cc1)[C@H](C(=O)NCc1cc(C(=N)N)cs1)C2 [Compound 168, (1S,3S,5S)-N-((4-carbamimidoylthiophen-2-yl)methyl)-5-methyl-2-((4-(3-phenyloxetan-3-yl)benzoyl)glycyl)-2-azabicyclo[3.1.0]hexane-3-carboxamide] | < 100 nM |
| C[C@@H](NC(=O)[C@@H]1C[C@]2(COCCCCCC(=O)O)C[C@@H]2N1C(=O)CNC(=O)CCCOc1ccccc1)c1cc(C(=N)N)cs1 [Compound 169, 6-(((1S,3S,5R)-3-(((R)-1-(4-carbamimidoylthiophen-2-yl)ethyl)carbamoyl)-2-((4-phenoxybutanoyl)glycyl)-2-azabicyclo[3.1.0]hexan-5-yl)methoxy)hexanoic acid] | < 100 nM |
| Cc1cccc([C@H]2C[C@@H](C(=O)NCc3cc(C(=N)N)cs3)N(C(=O)CNC(=O)CCCOc3ccccc3)C2)c1 [Compound 170, (2S,4R)-N-((4-carbamimidoylthiophen-2-yl)methyl)-1-((4-phenoxybutanoyl)glycyl)-4-(m-tolyl)pyrrolidine-2-carboxamide] | < 100 nM |
| Cc1cccc([C@@H]2C[C@@H](C(=O)NCc3cc(C(=N)N)cs3)N(C(=O)CNC(=O)CCCOc3ccccc3)C2)c1 [Compound 171, (2S,4S)-N-((4-carbamimidoylthiophen-2-yl)methyl)-1-((4-phenoxybutanoyl)glycyl)-4-(m-tolyl)pyrrolidine-2-carboxamide] | < 100 nM |
| C[C@@H](NC(=O)[C@@H]1C[C@@H](OC(F)F)CN1C(=O)CNC(=O)c1ccc(Oc2ccccc2)cc1)c1cc(C(=N)N)cs1 [Compound 172, (2S,4R)-N-((R)-1-(4-carbamimidoylthiophen-2-yl)ethyl)-4-(difluoromethoxy)-1-((4-phenoxybenzoyl)glycyl)pyrrolidine-2-carboxamide] | < 100 nM |
| CC(C)C[C@@H](NC(=O)[C@@H]1CC2(CN1C(=O)CNC(=O)CCCOc1ccccc1)OCCO2)c1cc(C(=N)N)cs1 [Compound 173, (S)-N-((R)-1-(4-carbamimidoylthiophen-2-yl)-3-methylbutyl)-7-((4-phenoxybutanoyl)glycyl)-1,4-dioxa-7-azaspiro[4.4]nonane-8-carboxamide] | > 1000 nM |
| N=C(N)c1csc([C@H](NC(=O)[C@@H]2CC3(CN2C(=O)CNC(=O)CCCOc2ccccc2)OCCO3)C2CCCC2)c1 [Compound 174, (S)-N-((R)-(4-carbamimidoylthiophen-2-yl)(cyclopentyl)methyl)-7-((4-phenoxybutanoyl)glycyl)-1,4-dioxa-7-azaspiro[4.4]nonane-8-carboxamide] | > 1000 nM |
| N=C(N)c1csc([C@H](NC(=O)[C@@H]2CC3(CN2C(=O)CNC(=O)CCCOc2ccccc2)OCCO3)c2ccccc2)c1 [Compound 175, (S)-N-((R)-(4-carbamimidoylthiophen-2-yl)(phenyl)methyl)-7-((4-phenoxybutanoyl)glycyl)-1,4-dioxa-7-azaspiro[4.4]nonane-8-carboxamide] | > 1000 nM |
| N=C(N)c1csc([C@@H](Cc2ccccc2)NC(=O)[C@@H]2CC3(CN2C(=O)CNC(=O)CCCOc2ccccc2)OCCO3)c1 [Compound 176, (S)-N-((R)-1-(4-carbamimidoylthiophen-2-yl)-2-phenylethyl)-7-((4-phenoxybutanoyl)glycyl)-1,4-dioxa-7-azaspiro[4.4]nonane-8-carboxamide] | > 1000 nM |
| N=C(N)c1csc([C@H](NC(=O)[C@@H]2CC3(CN2C(=O)CNC(=O)CCCOc2ccccc2)OCCO3)C2CC2)c1 [Compound 177, (S)-N-((R)-(4-carbamimidoylthiophen-2-yl)(cyclopropyl)methyl)-7-((4-phenoxybutanoyl)glycyl)-1,4-dioxa-7-azaspiro[4.4]nonane-8-carboxamide] | > 1000 nM |
| N=C(N)c1csc([C@@H](NC(=O)[C@@H]2CC3(CN2C(=O)CNC(=O)CCCOc2ccccc2)OCCO3)C2CC2)c1 [Compound 178, (S)-N-((S)-(4-carbamimidoylthiophen-2-yl)(cyclopropyl)methyl)-7-((4-phenoxybutanoyl)glycyl)-1,4-dioxa-7-azaspiro[4.4]nonane-8-carboxamide] | > 1000 nM |
| N=C(N)c1csc([C@@H](NC(=O)[C@@H]2CC3(CN2C(=O)CNC(=O)CCCOc2ccccc2)OCCO3)C2CCCC2)c1 [Compound 179, (S)-N-((S)-(4-carbamimidoylthiophen-2-yl)(cyclopentyl)methyl)-7-((4-phenoxybutanoyl)glycyl)-1,4-dioxa-7-azaspiro[4.4]nonane-8-carboxamide] | > 1000 nM |
| C[C@@H](NC(=O)[C@@H]1C[C@]2(C)C[C@@H]2N1C(=O)CNC(=O)c1ccc(C(=O)c2ccccc2)cc1)c1cc(C(=N)N)cs1 [Compound 180, (1S,5S)-2-((4-benzoylbenzoyl)glycyl)-N-((R)-1-(4-carbamimidoylthiophen-2-yl)ethyl)-5-methyl-2-azabicyclo[3.1.0]hexane-3-carboxamide] | < 100 nM |
| C[C@@H](NC(=O)[C@@H]1C[C@@H](Oc2ccccc2)CN1C(=O)CNC(=O)c1ccc(Oc2ccccc2)cc1)c1cc(C(=N)N)cs1 [Compound 181, (2S,4R)-N-((R)-1-(4-carbamimidoylthiophen-2-yl)ethyl)-4-phenoxy-1-((4-phenoxybenzoyl)glycyl)pyrrolidine-2-carboxamide] | < 100 nM |
| C[C@@]12C[C@@H]1N(C(=O)CNC(=O)c1ccc(Oc3ccccc3)cc1)[C@H](C(=O)NCc1cc3c(s1)CCN=C3N)C2 [Compound 182, (1S,3S,5S)-N-((4-amino-6,7-dihydrothieno[3,2-c]pyridin-2-yl)methyl)-5-methyl-2-((4-phenoxybenzoyl)glycyl)-2-azabicyclo[3.1.0]hexane-3-carboxamide] | > 1000 nM |
| N=C(N)c1csc([C@H](NC(=O)[C@@H]2C[C@@H](OC(F)F)CN2C(=O)CNC(=O)c2ccc(Oc3ccccc3)cc2)C2CC2)c1 [Compound 183, (2S,4R)-N-((R)-(4-carbamimidoylthiophen-2-yl)(cyclopropyl)methyl)-4-(difluoromethoxy)-1-((4-phenoxybenzoyl)glycyl)pyrrolidine-2-carboxamide] | > 1000 nM |
